Data: patent US20040248766A1, “Selective inhibition of intracellular amyloid-beta neurotoxicity in human neurons” (priority 2001, published 2004)
Several values for one entry are separate records, joined by “and”; a condition that tells them apart may be missing. Equal entries are not always repeated. Entries after “also recorded” stand apart in the source; their conditions may differ.

How the values were obtained:
human neurons [1] = assay: Neuronal cell death caused by the agent alone (without Aβ1-42); type: cell-based; details: 20 mM, DTR-injected neurons, 24 hours
Method: (§1) Measurement of neuronal apoptosis. Cells were fixed in freshly prepared 4% paraformaldehyde/4% sucrose for 20 minutes at room temperature and permeabilized in 0.1% Triton X-100, 0.1% sodium citrate on ice for 2 minutes. Terminal deoxynucleotidyl transferase-mediated dUTP nick end labeling (TUNEL) was performed using the In Situ Cell Death Detection Kit I as described by the manufacturer (Roche Molecular Biochemicals).

[2] = system: Aβ1-42-mediated neuronal cell death; assay: Inhibition of Aβ1-42-mediated neuronal cell death in Aβ1-42-microinjected neurons, TUNEL; type: cell-based, human; details: 20 mM, 1 hour pre-incubation, 24 hours
Method: cDNA Clones. Human Bcl-2 cDNA, Bax α cDNA, and APP695 cDNA were cloned into pCep4β (Invitrogen Canada, Burlington, ON, Canada). The p53 wild type and p53R273H dominant negative cDNA may be cloned in the pCMV-NEO vector. These cDNAs were purified through GlassMAXTM (Gibco-BRL, Rockville, Mass.) and diluted at 30 ng/μl in PBS before injection.
Neutralizing Bax antibodies. Monoclonal anti-Bax 6A7 (amino acids 12-24: Pharmingen, San Diego, Calif.) and 2D2 (amino acids 3-16: Trevigen, Gaithersburg, Md.), polyclonal anti-Bax N-20 (Santa Cruz Biotechnology, Santa Cruz, Calif.), monoclonal anti-APP 22C11 (Roche Molecular Biochemicals, Laval, PQ, Canada), mouse IgG or rabbit sera were diluted at 50 μg/ml (for 6A7, 2D2, mouse IgG and 22C11) or 25 μg/ml (for polyclonal anti-Bax and rabbit sera) in PBS before use. A toxicity curve was done to determine this concentration as the highest non-toxic concentration that can be injected in neurons.
(§2) Microinjection. Thin-walled Borosilicate glass capillaries (OD 1.0 mm, ID 0.5 mm) with microfilament (MTW1OOF-4, World Precision Instrument, Sarasota, Fla.) were pulled with a Flaming/Brown Micropipefte Puller (β-87, Sutter, Novato, Calif.) to obtain injection needles with a tip diameter of ˜0.5 μm. Microinjection was performed in the cytosol of each cell using the Eppendorf Microinjector 5246 (Hamburg, Germany) and Burleigh Micromanipulator MIS-5000 (Victor, N.Y.). Human neurons were injected with 25 pl/shot at an injection pressure of 100 hPa, a compensation pressure of 50 hPa, and an injection time of 0.1 s. Human astrocytes, M17, NT2 and La—N-1 cells were injected with 8 pl/shot at an injection pressure of 50 hPa, a compensation pressure of 30 hPa and an injection time of 0.1 s.
Measurement of neuronal apoptosis. Cells were fixed in freshly prepared 4% paraformaldehyde/4% sucrose for 20 minutes at room temperature and permeabilized in 0.1% Triton X-100, 0.1% sodium citrate on ice for 2 minutes. Terminal deoxynucleotidyl transferase-mediated dUTP nick end labeling (TUNEL) was performed using the In Situ Cell Death Detection Kit I as described by the manufacturer (Roche Molecular Biochemicals). The percentage of cell death was determined as the ratio of the number of DTR-TLUNEL-double-positive cells over the total number of DIR-positive cells.
Treatment with caspase inhibitors, cycloheximide, actinomycin D. Caspase pan inhibitor, Z-Valine-Alanine-Aspartic acid-fluoromethylketone (Z-VAD-fmk) (Biomol, Plymounth Meeting, PA); caspase-6 inhibitor, Z-Valine-Glutamic acid-Isoleucine-Aspartic acid-fmk (Z-VEID-fnk); caspase-3 inhibitor, Z-Aspartic acid-Glutamic acid-Valine-Aspartic acid-fmk (Z-DEVD-fmk); and caspase-8 inhibitor, Z-Isoleucine-Glutamic acid-Threomine-Aspartic acid-fmk (Z-IETD-fmk) (Sigma, Oakville, ON, Canada) were dissolved in 100% dimethylsulphoxide (DMSO, Sigma) at 5 mM and were diluted at 5 μM into culture medium immediately before use. The medium was changed every 48 hours.
Stock solutions of 5 mg/ml cycloheximide and 200 IM actinomycin D were made in sterile distilled water and diluted to 5 μg/ml for cycloheximide and 5 μM for actinomycin D in the culture medium immediately before use.
Dextran Texas Red (DTR) was co-injected with Aβ1-42 to identi the injected cells from the non-injected cells. The experiment was done on 200 microinjected neurons per preparation of neurons and on three independent neuron preparations.

[3] = system: human teratocarcinoma NT2; assay: Microinjection of Aβ1-42 into NT2 cells, TUNEL; type: cell-based; details: NT2, up to 8×10^−19 moles injected, 24 hours
Method: (§3) Human neuroblastoma M17 cells were cultured on ACLAR™ coverslips at 1×10^6 cells/ml in OPTI-MEM (Gibco-BRL) containing 5% FBS. Microinjection was performed when the cells reached 70-80% confluence on the coverslips. Human teratocarcinoma NT2 (Stratagene, La Jolla, Calif.) and neuroblastoma La-N-1 cells were cultured on ACLAR™ coverslips at 1×10^6 cells/ml in DMEM (Gibco-BRL) containing 10% FBS. Microinjection was performed when the cells were 50% confluent.
as §2, with “Human astrocytes, M17, NT2 and La—N-1 cells were injected with 8 pl/shot at an injection pressure of 50 hPa, a compensation pressure of 30 hPa and an injection time of 0.1 s.” left out
(§4) Measurement of neuronal apoptosis. […] The percentage of cell death was determined as the ratio of the number of DTR-TLUNEL-double-positive cells over the total number of DIR-positive cells.

[4] = system: baby hamster kidney (BHK) cell lines; assay: Microinjection of Aβ1-42 into BHK cells, TUNEL; type: cell-based; details: 24 hours
human neuroblastoma M17 = assay: Microinjection of Aβ1-42 into M17 cells, TUNEL; type: cell-based; details: M17, up to 8×10^−19 moles injected, 24 hours
Method: as §3
as §2, with “Human astrocytes, M17, NT2 and La—N-1 cells were injected with 8 pl/shot at an injection pressure of 50 hPa, a compensation pressure of 30 hPa and an injection time of 0.1 s.” left out
as §4

NIH 3T3 fibroblasts = assay: Microinjection of Aβ1-42 into NIH 3T3 fibroblasts, TUNEL; type: cell-based, mice; details: 24 hours
primary human astrocytes = assay: Microinjection of Aβ1-42 into primary human astrocytes, TUNEL/Hoechst; type: cell-based; details: up to 100 nM / 8×10^−19 moles injected, 24 hours
Method: Cell cultures. Primary cultures of human neurons and astrocytes were prepared as described in LeBlanc, A., J. Neurosci. 15:7837-46 (1995), incorporated herein by reference. Fresh brain tissues were dissociated with 0.25% trypsin (Gibco-BRL) in phosphate buffered saline (PBS) at 37° C. for 15 minutes. The trypsin was inactivated. by adding 10% decomplemented fetal bovine serum (FBS, HyClone, Logan, Utah.) to the mixture. The dissociated tissues were triturated in 0.1 mg/ml DNaseI (Gibco-BRL) to obtain a homogeneous mixture. The mixture was filtered successively through 130 and 70 gm filters and centrifuged at […] for 10 minutes at 10° C. to pellet the cells. The cell pellet was washed once with PBS and once with minimal essential media (MEM, Gibco-BRL) in Earle's balanced salt solution containing 0.225% sodium bicarbonate, 1 mM sodium pyruvate, 2 mM L-glutamine, 0.1% dextrose, 1×antibiotic Pen-Strep (all from Gibco-BRL) and 5% decomplemented FBS. […]
Measurement of neuronal apoptosis. […] The percentage of cell death was determined as the ratio of the number of DTR-TLUNEL-double-positive cells over the total number of DIR-positive cells. […]
Cell death was identified by TUNEL staining and nuclei detected with Hoechst staining. […] The faint green fluorescence detected in these cells is the results of bleed-through from the red DTR fluorescence on the microscope.

primary human neurons = assay: Microinjection of Aβ peptides into the cytosol of primary human neurons, cell death by TUNEL; type: cell-based; details: for number of molecules toxic (as few as / as little as): microinjected neurons
Method: Cell cultures. Primary cultures of human neurons and astrocytes were prepared as described in LeBlanc, A., J. Neurosci. 15:7837-46 (1995), incorporated herein by reference. Fresh brain tissues were dissociated with 0.25% trypsin (Gibco-BRL) in phosphate buffered saline (PBS) at 37° C. for 15 minutes. The trypsin was inactivated. by adding 10% decomplemented fetal bovine serum (FBS, HyClone, Logan, Utah.) to the mixture. The dissociated tissues were triturated in 0.1 mg/ml DNaseI (Gibco-BRL) to obtain a homogeneous mixture. The mixture was filtered successively through 130 and 70 gm filters and centrifuged at 15,000 g for 10 minutes at 10° C. to pellet the cells. The cell pellet was washed once with PBS and once with minimal essential media (MEM, Gibco-BRL) in Earle's balanced salt solution containing 0.225% sodium bicarbonate, 1 mM sodium pyruvate, 2 mM L-glutamine, 0.1% dextrose, 1×antibiotic Pen-Strep (all from Gibco-BRL) and 5% decomplemented FBS.
The cells were plated on poly-L-lysine-coated ACLARTM (Cat. No.: 33C; thickness: 0.5 mm; Allied Chemical, Minneapolis, Minn.) coverslips at a density of 3×10^6 cells/ml. Neurons and astrocytes were incubated at 37° C. in the MEM media with 5% CO2, and the media were changed every 48 hours. For neuron culture, 1 mM fluorodeoxyuridine (FDU, Gibco-BRL) was applied for the first 3 feedings and after that, used weekly to prevent proliferation of dividing cells. […] Microinjection or treatment was performed 10 days after plating for neurons and astrocytes.
Aβ peptides. Aβ peptides (Bachem, King of Prussia, Pa.) were dissolved in sterile distilled water at 25 μM and incubated at 37° C. for 5 days. The peptides stock solutions were frozen and diluted in 1×PBS immediately before microinjection. […] A 250 μl aliquot was diluted to 0.25 μM and immediately frozen at −20° C. in aliquots of 50 μl. The remaining solution was incubated at 37° C. in Eppendorf tubes with continuous mixing by inversion. After incubation, the samples were removed, vortexed, sonicated twice for 1 minute in a bath type sonicator (ELMA GmbH & Co. KG, Germany) and frozen at −20° C. in […]. Each aliquot was used once to avoid possible effects of freeze and thaw cycles.
as §2
The diluted peptides were injected at the indicated concentrations with 100 μg/ml dextran Texas Red (DTR) (MW: 3000, Molecular Probes, Eugene, Oreg.) as a fluorescent marker to recognize the injected cells.
as §1

[5] = system: human neuroblastoma La-N-1; assay: Microinjection of Aβ1-42 into La-N-1 cells, TUNEL; type: cell-based; details: La-N-1, up to 8×10^−19 moles injected, 24 hours
Method: as §3
as §2, with “Human astrocytes, M17, NT2 and La—N-1 cells were injected with 8 pl/shot at an injection pressure of 50 hPa, a compensation pressure of 30 hPa and an injection time of 0.1 s.” left out
as §4

human neurons [6] = assay: Exposure of human neurons to extracellular Aβ peptides, TUNEL and propidium iodide; type: cell-based; details: 10 μM extracellular, 24 hours
Method: To test if this particular batch of peptide might be neurotoxic, neurons were treated with 10 μM of peptides for 24 hours.

[7] = determined in a medium or extracellularly; cited from earlier work

[Cl-].[Li+] [LiCl2]
cell death with agent and DTR only (in words) (human neurons [1]): did not undergo cell death
protection against intracellular Aβ1-42 toxicity (in words) [2]: efficiently protected

Aβ1-42: 42 amino acid amyloid β peptide (SEQ ID NO: 2), aged 5 days at 37° C.
intracellular toxicity (in words) [3]: not observed to be toxic; also recorded: completely resist; also recorded: fails to induce cell death
intracellular toxicity (in words) ([3]; listed as Aβ42): remain resistant
intracellular toxicity (in words) [4]: not observed to be toxic; also recorded: fails to induce cell death
intracellular toxicity (in words) (human neuroblastoma M17): not observed to be toxic; also recorded: completely resist; also recorded: fails to induce cell death
intracellular toxicity (in words) (human neuroblastoma M17; listed as Aβ42): remain resistant
intracellular toxicity (in words) (NIH 3T3 fibroblasts): not observed to be toxic; also recorded: fails to induce cell death
intracellular toxicity (in words) (primary human astrocytes): not observed to be toxic; also recorded: completely resist; also recorded: do not show any sign of condensed chromatin by Hoechst staining, nor positive nuclei TUNEL staining
intracellular toxicity (in words) (primary human astrocytes; listed as Aβ42): remain resistant
cell death of microinjected neurons (primary human neurons; 10 nM aged peptide, 48 hours after injection): 78%
amount delivered into the neuron cytosol sufficient to induce rapid neuronal death (primary human neurons; 25 pl/shot of 10 nM): 2.5e-19 mol
apoptosis of microinjected neurons (primary human neurons; 25×10^−21 moles intracellular, within 24 hours after injection): 70%
cell death of microinjected neurons (primary human neurons; 100-fold dilution in the amount injected (25 pl/shot of 10 nM)): 50%
number of molecules giving 50% toxicity (primary human neurons; based on the Avogadro number): 1505.5 molecules/neuron
number of molecules injected giving maximal toxicity (primary human neurons; based on the Avogadro number): 150,055 molecules
toxic concentration of injected peptide in the cytosol (primary human neurons; calculated from injected moles and cytosolic volume 2.5 nL): 1 pM and 1 to 100 pM
number of molecules toxic (as few as / as little as) (primary human neurons): 1500 molecules
number of molecules toxic (as few as / as little as) (primary human neurons; listed as Aβ42): 150.5 molecules
intracellular toxicity to human neurons (in words) (primary human neurons; peptide microinjected into cytosol): rapidly induces cell death
reduction of concentration that still exerts significant toxicity (primary human neurons; relative to 25×10^−21 moles/cell, FIG. 1C): 100 to 1000 fold
intracellular toxicity (in words) [5]: not observed to be toxic; also recorded: completely resist; also recorded: fails to induce cell death
intracellular toxicity (in words) ([5]; listed as Aβ42): remain resistant
toxicity of extracellular peptide (in words) (human neurons [6]): do not undergo cell death; also recorded: Neither extracellular Aβ1-40, Aβ1-42, or Aβ40-1 are toxic
toxic concentration known in the art [7]: 10 to 100 µM
